{"source": "patent US20060142247A1", "about": "“Tricyclic heterocycles” (priority 2004, published 2006)"}
{"biological_target": "T1, Aurora A (Homo sapiens, UniProt O14965)", "T1 construct": "C-terminally Histidine4 (His4)-tagged Aurora A full-length protein; His4 (C)", "T1 sequence (O14965 1-403)": "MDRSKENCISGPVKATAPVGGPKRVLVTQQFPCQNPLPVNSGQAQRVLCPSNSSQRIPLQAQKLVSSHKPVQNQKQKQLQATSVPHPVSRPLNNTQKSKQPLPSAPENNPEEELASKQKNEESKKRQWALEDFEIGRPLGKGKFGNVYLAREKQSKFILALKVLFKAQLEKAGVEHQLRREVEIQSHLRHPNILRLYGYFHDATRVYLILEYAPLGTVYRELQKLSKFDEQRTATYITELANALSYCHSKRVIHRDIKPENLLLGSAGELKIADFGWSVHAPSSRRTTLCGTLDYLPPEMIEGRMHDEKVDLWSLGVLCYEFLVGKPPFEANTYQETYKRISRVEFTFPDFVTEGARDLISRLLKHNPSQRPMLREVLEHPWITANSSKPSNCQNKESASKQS", "assay": "IC50 determination for inhibitors of Aurora A (96 MTP-ELISA)", "format": "biochemical", "settings": "His4-tagged full-length Aurora A 250 ng/ml, PKB-GSK2 200 nM, ATP 4 μM, 90 min room temperature, read-out: IC50 Aurora A kinase inhibition", "description": "Aurora A is a serine threonine kinase involved in spindle assembly and chromosome segregation. The assay is a typically ELISA-type assay where biotinylated substrate (PKB-GSK2) is phosphorylated. Phosphorylation is detected by peroxidase (POD) labelled polyclonal antibody (PAK<M-Ig>S-IgG-POD) and phosphopeptide monoclonal antibody (Mab) (MAK<P-GSK>M-27E5-IgG). The assay is validated for IC50-determination.\nAssay plates: 96-well polystyrene plates, streptavidin-coated,\nSamples: 10 mM in dimethylsulfoxide (DMSO)\nAurora A-His-4: C-terminally Histidine4 (His4)-tagged Aurora A full-length protein, stock solution 0.7 mg/ml, final conc.: 250 ng/ml\nPKB-GSK2: biotinylated peptide derived from human GSK3-alpha sequence (Biotin-SGRARTSSFAEPGG-CONH2), stock solution 600 μM, final conc.: 200 nM\nPAK<M-Ig>S-IgG-POD: Anti-mouse IgG, horse radish peroxidase(HRP)-linked Antibody, diluted in 3% BSA/PBS-T (1:10000), (Cell Signaling, Cat. No.: 7076)\nMAK<P-GSK>M-27E5-IgG: Phospho-GSK-3-alpha (Ser 21) (27E5) Monoclonal Antibody, stock solution 1.85 mg/ml, diluted in 3% BSA/PBS-T (1:6000), final conc.: 0.31 μg/ml, (Cell Signaling, Cat. No.: 9337B)\nATP: Adenosine-5′-triphosphate 1 mM, diluted in kinase buffer, (Roche Diagnostics GmbH, Cat. No.: 127531-001,), final conc.: 4 μM\nTRIS: 2-Amino-2-hydroxymethyl-1,3-propoanediol (“tris-(hydroxymethyl)-aminomethane”) (MERCK, Cat. No.: 108382.2500)\nBSA: Bovine Serum Albumin Fraction V, fatty acid free (Roche Diagnostics GmbH, Cat. No. 9100221)\nEDTA Titriplex III (di-Sodium-EDTA di-Hydrate), 120 mM, (MERCK, Cat. No.: 1.08418.1000)\nABTS buffer: ABTS (2,2′-azino-bis(3-ethylbenzthiazoline-6-sulfonic acid)) 16.7 mg/ml (Roche Diagnostics GmbH, Cat. No.: 1204530) • ABTS tablets: dissolve one ABTS tablet in 50 ml of working solution (ABTS buffer) (Roche Diagnostics GmbH, Cat. No.: 1112422 ) • Tween 20: Polysorbat 20 (Roche Diagnostics GmbH, Cat. No.: 10006394-001) • DTT: 1,4-Dithiothreitol (Roche Diagnostics GmbH, Cat. No.: 197777) • MgCl2×6H2O MERCK, Cat. No.: 105833.1000 • Kinase buffer: 50 mM TRIS, 10 mM MgCl2, 1 mM DTT, 0.1% Tween 20, pH 7.8 PBS-T (=Wash buffer) (PBS-T)10 g/l PBS(Phosphate buffered saline) with 0.033% Tween 20 • 3% BSA/PBS-T: 3% BSA dissolved in PBS-T Method\nThis assay is performed in 96-well format for IC50 determination with 5 samples (each with 8 concentrations by twofold testing), 100 μl incubation volume and the following plate layout:\nS samples, with ATP, 1% DMSO, final conc.: a=100 μM, b=20 μM, c=4 μM, d=0.8 μM, e=0.16 μM, f=0.032 μM, g=0.0064 μM, h=0.00128 μM Step/Action • (1) Sample preparation: add 24 μl per well samples (descending sequence) diluted in kinase buffer to assay plate (final conc. for DMSO 1%). • 2. Add directly 16 μl Aurora-A-his-4 diluted in kinase buffer to assay plate. • 3. Add directly 40 μl per well PKB-GSK2/ATP mixture to assay plate, (final conc.: Aurora A=250 ng/ml, GSK2=200 nM, ATP=4 μM). Negative control: without ATP. • 4. Incubate assay plate for exactly 90 min at room temperature. • 5. Stop reaction by adding 20 μl EDTA in all wells. • 6. Wash assay plate 3× with 200 μl washing buffer per well. • 7. Add 100 μl MAK<P-GSK>M27E5-IgG (1:10000) and PAK<M-Ig>S-IgG-POD (1:6000) dissolved in 3% BSA/PBS-T to assay plate per well. • 8. Incubate assay plate for 60 min at room temperature. • 9. Wash assay plate 3× with 200 μl washing buffer per well • 10. Add 100 μl ABTS solution to assay plate per well, incubate for approx. 4 min at RT on MTP shaker. • 11. Measure absorption at 405/492 nm. • 12. Calculate % inhibition as: (1−(Esample−ENC)/(EPC−ENC))×100 1)\n13. Calculate IC50 using a non-linear curve fit (XLfit software (ID Business Solution Ltd., Guilford, Surrey, UK))", "units": {"IC50": "nM"}}
{"smiles": "CC1(C)CC(=O)Nc2cc3nc(-c4n[nH]c5ccccc45)[nH]c3cc21", "note": "[Example 10, 2-(1H-Indazol-3-yl)-8,8-dimethyl-1,5,7,8-tetrahydro-imidazo[4,5-g]quinolin-6-one]", "IC50": "100 to 250"}
{"smiles": "CC1(C)C(=O)N(CC(=O)NCC(O)CO)c2cc3[nH]c(-c4n[nH]c5ccccc45)nc3cc21", "note": "(stereo not drawn) [Example 48, N-(2,3-Dihydroxy-propyl)-2-[2-(1H-indazol-3-yl)-7,7-dimethyl-6-oxo-6,7-dihydro-3H-imidazo[4,5-f]indol-5-yl]-acetamide]", "IC50": "1 to 100"}
{"smiles": "CC1(C)C(=O)N(Cc2cccnc2)c2cc3[nH]c(-c4n[nH]c5ccccc45)nc3cc21", "note": "[Example 16, 2-(1H-Indazol-3-yl)-7,7-dimethyl-5-pyridin-3-ylmethyl-5,7-dihydro-3H-imidazo[4,5-f]indol-6-one]", "IC50": "1 to 100"}
{"smiles": "CC1(C)C(=O)N(CC(=O)N2CCCCC2)c2cc3[nH]c(-c4n[nH]c5ccccc45)nc3cc21", "note": "[Example 44, 2-(1H-Indazol-3-yl)-7,7-dimethyl-5-(2-oxo-2-piperidin-1-yl-ethyl)-5,7-dihydro-3H-imidazo[4,5-f]indol-6-one]", "IC50": "1 to 100"}
{"smiles": "COCCN1C(=O)C(C)(C)c2cc3nc(-c4n[nH]c5ccccc45)[nH]c3cc21", "note": "[Example 18, 2-(1H-Indazol-3-yl)-5-(2-methoxy-ethyl)-7,7-dimethyl-5,7-dihydro-3H-imidazo[4,5-f]indol-6-one]", "IC50": "1 to 100"}
{"smiles": "CN1CCN(C(=O)CN2C(=O)C(C)(C)c3cc4nc(-c5n[nH]c6ccccc56)[nH]c4cc32)CC1", "note": "[Example 42, 2-(1H-Indazol-3-yl)-7,7-dimethyl-5-[2-(4-methyl-piperazin-1-yl)-2-oxo-ethyl]-5,7-dihydro-3H-imidazo[4,5-f]indol-6-one]", "IC50": "1 to 100"}
{"smiles": "CN(C)CCNC(=O)CN1C(=O)C(C)(C)c2cc3nc(-c4n[nH]c5ccccc45)[nH]c3cc21", "note": "[Example 38, N-(2-Dimethylamino-ethyl)-2-[2-(1H-indazol-3-yl)-7,7-dimethyl-6-oxo-6,7-dihydro-3H-imidazo[4,5-f]indol-5-yl]-acetamide]", "IC50": "1 to 100"}
{"smiles": "CC1(C)C(=O)N(Cc2nnn[nH]2)c2cc3[nH]c(-c4n[nH]c5ccccc45)nc3cc21", "note": "[Example 33, 2-(1H-Indazol-3-yl)-7,7-dimethyl-5-(1H-tetrazol-5-ylmethyl)-5,7-dihydro-3H-imidazo[4,5-f]indol-6-one]", "IC50": "1 to 100"}
{"smiles": "CC1(C)C(=O)N(CC(O)CN2CCOCC2)c2cc3[nH]c(-c4n[nH]c5ccccc45)nc3cc21", "note": "(stereo not drawn) [Example 29, 5-(2-Hydroxy-3-morpholin-4-yl-propyl)-2-(1H-indazol-3-yl)-7,7-dimethyl-5,7-dihydro-3H-imidazo[4,5-f]indol-6-one]", "IC50": "1 to 100"}
{"tested_on": "HCT 116 cells", "assay": "Viability assay HCT 116 cells (CellTiter-Glo)", "format": "cell-based", "settings": "Homo sapiens, HCT-116, 120 h, HCT 116 human colon carcinoma cells, 5 days incubation, CellTiter-Glo luminescence", "description": "Viability Assay—HCT 116 Cells\nA viability assay was performed using the CellTiter-Glo® Luminescent Cell Viability Assay (see Promega Corporation's Technical Bulletin No. 288, pp. 1-11 [revised 2/04] which is hereby incorporated by reference in its entirety). This assay is a homogeneous method of determining the number of viable cells in culture based on quantitation of the ATP present, an indicator of metabolically active cells. The assay is designed for use with multiwell formats, making it ideal for automated high-throughput screening (HTS), cell proliferation and cytotoxicity assays. The homogeneous assay procedure involves adding a single reagent (containing luciferase, luciferan substrate, and buffer) directly to cells cultured in serum-supplemented medium. Cell washing, removal of medium and multiple pipetting steps are not required. The system detects as few as 15 cells/well in a 384-well format in 10 minutes after adding reagent and mixing.\nThe homogeneous “add-mix-measure” format results in cell lysis and generation of a luminescent signal proportional to the amount of ATP present. The amount of ATP is directly proportional to the number of cells present in culture. The above-referenced assay generates a “glow-type” luminescent signal, produced by the luciferase reaction, which has a half-life generally greater than five hours, depending on cell type and medium used. The extended half-life eliminates the need to use reagent injectors and provides flexibility for continuous or batch mode processing of multiple plates. The unique homogeneous format avoids errors that may be introduced by other ATP measurement methods that require multiple steps.\nHCT 116 cells (human colon carcinoma, ATCC-No. CCl-247) were cultivated in RPMI 1640 medium with GlutaMAX™ I (cell culture media that contains L-Alanyl-L-Glutamine [a stabilized a form/source of L-Glutamine] from Invitrogen, Cat-No. 61870-010), 2.5% Fetal Calf Serum (FCS, Sigma Cat-No. F4135 (FBS)); 100 Units/ml penicillin/100 μg/ml streptomycin (=Pen/Strep from Invitrogen Cat. No. 15140). For the assay the cells were seeded in 384 well plates, 1000 cells per well, in the same medium. The next day the test compounds were added in various concentrations ranging from 30 μM to 0.0015 μM (10 concentrations, 1:3 diluted). After 5 days the viability assay was done according to the instructions of the manufacturer. In brief: the cell-plate was equilibrated to room temperature for approximately 30 minutes and than the reagent (containing luciferase, luciferan substrate, and buffer) was added. The contents were carefully mixed for 15 minutes to induce cell lysis. After 45 minutes the luminescent signal was measured in Victor 2, (scanning multiwell spectrophotometer, Wallac).\nMedium: RPMI 1640 with cell culture media containing L-Alanyl-L-Glutamine [GlutaMAX™ I (Invitrogen, Cat-Nr. 61870)], 5% FCS (Sigma Cat.-No. F4135), Pen/Strep (Invitrogen, Cat No. 15140). • HCT116 (ATCC-No. CCl-247): 1000 cells in 60 μl per well of 384 well plate (Greiner 781098, μClear-plate white) • After seeding incubate plates 24 h at 37° C., 5% CO2 2nd. Day: Induction (Treatment with Compounds, 10 Concentrations):\nIn order to achieve a final concentration of 30 μM as highest concentration […] of 10 mM compound stock solution were added directly to 163 μl media. Then step e) of the dilution procedure described below, was followed.", "units": {"IC50": "nM"}}
{"smiles": "CCN1C(=O)C(C)(C)c2cc3nc(-c4n[nH]c5ccc(C(=O)O)cc45)[nH]c3cc21", "note": "[Example 69, 3-(5-Ethyl-7,7-dimethyl-6-oxo-3,5,6,7-tetrahydro-imidazo[4,5-f]indol-2-yl)-1H-indazole-5-carboxylic acid]", "IC50": "100 to 1000"}
{"smiles": "CC1(C)C(=O)N(CC(=O)NCc2cccnc2)c2cc3[nH]c(-c4n[nH]c5ccccc45)nc3cc21", "note": "[Example 41, 2-[2-(1H-Indazol-3-yl)-7,7-dimethyl-6-oxo-6,7-dihydro-3H-imidazo[4,5-f]indol-5-yl]-N-pyridin-3-ylmethyl-acetamide]", "IC50": "100 to 1000"}
{"smiles": "CCN1C(=O)C(C)(C)c2cc3nc(-c4n[nH]c5ccc(C(=O)NCc6cccc(OC(F)(F)F)c6)cc45)[nH]c3cc21", "note": "[Example 86, 3-(5-Ethyl-7,7-dimethyl-6-oxo-3,5,6,7-tetrahydro-imidazo[4,5-f]indol-2-yl)-1H-indazole-5-carboxylic acid 3-trifluoromethoxy-benzylamide]", "IC50": "100 to 1000"}
